Experimental data as given in paper PMC7880690, “Chemical genetics and proteome-wide site mapping reveal cysteine MARylation by PARP-7 on immune-relevant protein targets” (eLife, 2021).

Assays:
[1] = biological target: T1, PARP-7 (Homo sapiens, UniProt Q7Z3E1); settings: time course in HEK 293 T cells
T1 sequence (Q7Z3E1 1-657): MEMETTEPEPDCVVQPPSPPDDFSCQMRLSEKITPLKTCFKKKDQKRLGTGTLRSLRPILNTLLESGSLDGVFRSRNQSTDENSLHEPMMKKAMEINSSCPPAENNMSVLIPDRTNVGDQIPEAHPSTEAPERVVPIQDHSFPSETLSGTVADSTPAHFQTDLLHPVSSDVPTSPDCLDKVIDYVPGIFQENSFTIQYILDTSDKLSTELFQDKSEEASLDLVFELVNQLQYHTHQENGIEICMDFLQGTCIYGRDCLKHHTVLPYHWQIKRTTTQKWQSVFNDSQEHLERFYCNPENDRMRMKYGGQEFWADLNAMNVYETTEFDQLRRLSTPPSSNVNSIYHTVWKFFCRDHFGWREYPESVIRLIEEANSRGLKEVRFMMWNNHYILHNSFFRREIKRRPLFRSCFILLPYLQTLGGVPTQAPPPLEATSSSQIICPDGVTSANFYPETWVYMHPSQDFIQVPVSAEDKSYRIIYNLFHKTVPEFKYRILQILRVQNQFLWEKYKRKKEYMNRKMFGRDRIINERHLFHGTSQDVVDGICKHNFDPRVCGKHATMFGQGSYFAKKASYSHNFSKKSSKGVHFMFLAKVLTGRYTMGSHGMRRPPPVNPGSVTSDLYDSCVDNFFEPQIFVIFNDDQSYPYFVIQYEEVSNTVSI

[2] = biological target: T2, IG-PARP-7 (I631G PARP-7) (Homo sapiens, UniProt Q7Z3E1, I631G); test: Labeling by orthogonal NAD+ analogs in HEK 293T lysates expressing GFP-IG-PARP-7 (click with biotin-azide, Streptavidin-HRP); assay type: biochemical; settings: HEK 293 T cell lysates, 100 µM NAD+ analog
T2 construct: expressed in transfected cells; host or cells: HEK 293T (lysate)
T2 sequence (Q7Z3E1 whole entry I631G): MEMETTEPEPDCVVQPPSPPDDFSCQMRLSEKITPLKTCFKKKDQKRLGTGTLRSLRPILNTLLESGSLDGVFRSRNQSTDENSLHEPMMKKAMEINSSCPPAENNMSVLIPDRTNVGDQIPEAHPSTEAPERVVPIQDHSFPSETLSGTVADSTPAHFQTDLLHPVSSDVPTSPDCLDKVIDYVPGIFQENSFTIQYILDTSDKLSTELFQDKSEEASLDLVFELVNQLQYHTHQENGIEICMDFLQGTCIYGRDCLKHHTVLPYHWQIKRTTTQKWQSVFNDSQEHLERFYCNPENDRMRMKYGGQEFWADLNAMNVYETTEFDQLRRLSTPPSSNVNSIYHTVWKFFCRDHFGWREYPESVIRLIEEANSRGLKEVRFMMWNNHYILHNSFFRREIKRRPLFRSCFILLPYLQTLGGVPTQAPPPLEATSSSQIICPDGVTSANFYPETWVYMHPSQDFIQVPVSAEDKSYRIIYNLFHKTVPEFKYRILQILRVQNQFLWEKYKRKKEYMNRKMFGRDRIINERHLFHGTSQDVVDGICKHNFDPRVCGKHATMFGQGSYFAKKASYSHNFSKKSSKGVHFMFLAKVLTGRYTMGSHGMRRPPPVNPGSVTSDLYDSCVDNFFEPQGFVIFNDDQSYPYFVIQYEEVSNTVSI
Description: Identifying the protein targets of PARP-7 is a critical first step toward unraveling its function in cells. In previous work we have developed an engineered enzyme—modified substrate strategy for identifying relevant targets of individual PARP family members ([Carter-O'Connell et al., 2014]; [Carter-O'Connell et al., 2016]; [Carter-O'Connell and Cohen, 2015]; [Carter-O'Connell et al., 2018]). This chemical genetic (CG) method uses engineered PARPs and an orthogonal NAD^+ analogue that contains a clickable handle (e.g. an alkyne) that is located at the N-6 position of the adenine ring (5-Bn-6-a-NAD^+). […] Importantly, 5-Bn-6-a-NAD^+ is not used by wild-type (WT) PARPs and in this way is orthogonal to native NAD^+. […] We therefore sought a new orthogonal NAD^+ analogue that would serve as an efficient substrate for floor position engineered PARP-7, I631G PARP-7 (IG-PARP-7) (Figure 1a).
Figure 1. A chemical genetic strategy for identifying the direct MARylation targets of PARP-7. (a) Schematic of chemical genetic approach for identifying direct targets of PARP-7. (b) Crystal structure of human PARP1 bound to the non-hydrolyzable NAD^+ analog benzamide adenine dinucleotide (BAD). PDB: 6bhv. […] Following copper-catalyzed click chemistry with biotin-azide, proteins were resolved by SDS-PAGE and biotinylated proteins were detected by Western blot detection using Streptavidin-HRP. […]

SMILES	decay of PARP-7-mediated MARylation of PARP-13.2 [1]	substrate for floor position engineered PARP-7 (IG-PARP-7) [2]
C[C@]1(c2nc3c(C(N)=O)cccc3[nH]2)CCCN1 [veliparib]	does not lead to the decay	
C#CCNc1ncnc2c1ncn2C1OC(COP(=O)(O)OP(=O)([O-])OCC2OC([n+]3cc(Cc4ccccc4)cc(C(N)=O)c3)C(O)C2O)C(O)C1O (centres unmarked) [5-Bn-6-a-NAD^+, reference compound]		poor substrate
